{"source": "BigSolDB 2.1"}
{"smiles": "Nc1ccc(Cl)nn1", "values": [{"measurement": "solubility (mole fraction)", "setting": "in DMF, 298.45 K", "value": 0.0353}, {"measurement": "solubility (mole fraction)", "setting": "in DMF, 303.35 K", "value": 0.0401}, {"measurement": "solubility (mole fraction)", "setting": "in DMF, 308.15 K", "value": 0.0455}, {"measurement": "solubility (mole fraction)", "setting": "in DMF, 313.35 K", "value": 0.0522}, {"measurement": "solubility (mole fraction)", "setting": "in DMF, 318.15 K", "value": 0.0592}, {"measurement": "solubility (mole fraction)", "setting": "in DMF, 323.25 K", "value": 0.0647}, {"measurement": "solubility (mole fraction)", "setting": "in DMF, 328.35 K", "value": 0.0705}, {"measurement": "solubility (mole fraction)", "setting": "in DMF, 333.45 K", "value": 0.0768}, {"measurement": "solubility (mole fraction)", "setting": "in DMF, 337.95 K", "value": 0.083}, {"measurement": "solubility (mole fraction)", "setting": "in DMF, 343.05 K", "value": 0.0904}, {"measurement": "solubility (mole fraction)", "setting": "in acetone, 298.15 K", "value": 0.00338}, {"measurement": "solubility (mole fraction)", "setting": "in acetone, 303.15 K", "value": 0.00423}, {"measurement": "solubility (mole fraction)", "setting": "in acetone, 308.15 K", "value": 0.00513}, {"measurement": "solubility (mole fraction)", "setting": "in acetone, 313.25 K", "value": 0.00597}, {"measurement": "solubility (mole fraction)", "setting": "in acetone, 318.15 K", "value": 0.00682}, {"measurement": "solubility (mole fraction)", "setting": "in acetone, 323.15 K", "value": 0.00791}, {"measurement": "solubility (mole fraction)", "setting": "in acetone, 328.15 K", "value": 0.00871}, {"measurement": "solubility (mole fraction)", "setting": "in cyclohexanone, 298.25 K", "value": 0.00455}, {"measurement": "solubility (mole fraction)", "setting": "in cyclohexanone, 303.25 K", "value": 0.0053}, {"measurement": "solubility (mole fraction)", "setting": "in cyclohexanone, 308.15 K", "value": 0.00643}, {"measurement": "solubility (mole fraction)", "setting": "in cyclohexanone, 313.15 K", "value": 0.00782}, {"measurement": "solubility (mole fraction)", "setting": "in cyclohexanone, 318.25 K", "value": 0.00889}, {"measurement": "solubility (mole fraction)", "setting": "in cyclohexanone, 323.05 K", "value": 0.0107}, {"measurement": "solubility (mole fraction)", "setting": "in cyclohexanone, 328.15 K", "value": 0.0125}, {"measurement": "solubility (mole fraction)", "setting": "in cyclohexanone, 333.15 K", "value": 0.015}, {"measurement": "solubility (mole fraction)", "setting": "in cyclohexanone, 338.25 K", "value": 0.0174}, {"measurement": "solubility (mole fraction)", "setting": "in cyclohexanone, 343.15 K", "value": 0.02}, {"measurement": "solubility (mole fraction)", "setting": "in ethanol, 298.15 K", "value": 0.00206}, {"measurement": "solubility (mole fraction)", "setting": "in ethanol, 303.25 K", "value": 0.00271}, {"measurement": "solubility (mole fraction)", "setting": "in ethanol, 308.15 K", "value": 0.00318}, {"measurement": "solubility (mole fraction)", "setting": "in ethanol, 313.15 K", "value": 0.00405}, {"measurement": "solubility (mole fraction)", "setting": "in ethanol, 318.15 K", "value": 0.005}, {"measurement": "solubility (mole fraction)", "setting": "in ethanol, 323.15 K", "value": 0.006}, {"measurement": "solubility (mole fraction)", "setting": "in ethanol, 328.15 K", "value": 0.00702}, {"measurement": "solubility (mole fraction)", "setting": "in ethanol, 333.15 K", "value": 0.00848}, {"measurement": "solubility (mole fraction)", "setting": "in ethanol, 338.15 K", "value": 0.00994}, {"measurement": "solubility (mole fraction)", "setting": "in ethanol, 342.85 K", "value": 0.0113}, {"measurement": "solubility (mole fraction)", "setting": "in ethyl acetate, 298.45 K", "value": 0.00133}, {"measurement": "solubility (mole fraction)", "setting": "in ethyl acetate, 303.35 K", "value": 0.00166}, {"measurement": "solubility (mole fraction)", "setting": "in ethyl acetate, 308.15 K", "value": 0.00194}, {"measurement": "solubility (mole fraction)", "setting": "in ethyl acetate, 313.15 K", "value": 0.00227}, {"measurement": "solubility (mole fraction)", "setting": "in ethyl acetate, 318.25 K", "value": 0.00263}, {"measurement": "solubility (mole fraction)", "setting": "in ethyl acetate, 323.25 K", "value": 0.00319}, {"measurement": "solubility (mole fraction)", "setting": "in ethyl acetate, 328.15 K", "value": 0.00358}, {"measurement": "solubility (mole fraction)", "setting": "in ethyl acetate, 333.15 K", "value": 0.00413}, {"measurement": "solubility (mole fraction)", "setting": "in ethyl acetate, 338.35 K", "value": 0.00479}, {"measurement": "solubility (mole fraction)", "setting": "in ethyl acetate, 343.15 K", "value": 0.0053}, {"measurement": "solubility (mole fraction)", "setting": "in methanol, 298.15 K", "value": 0.00388}, {"measurement": "solubility (mole fraction)", "setting": "in methanol, 303.35 K", "value": 0.00444}, {"measurement": "solubility (mole fraction)", "setting": "in methanol, 308.05 K", "value": 0.00525}, {"measurement": "solubility (mole fraction)", "setting": "in methanol, 313.15 K", "value": 0.00605}, {"measurement": "solubility (mole fraction)", "setting": "in methanol, 318.15 K", "value": 0.00721}, {"measurement": "solubility (mole fraction)", "setting": "in methanol, 322.95 K", "value": 0.00824}, {"measurement": "solubility (mole fraction)", "setting": "in methanol, 328.55 K", "value": 0.00936}, {"measurement": "solubility (mole fraction)", "setting": "in methanol, 332.45 K", "value": 0.0107}, {"measurement": "solubility (mole fraction)", "setting": "in n-butanol, 296.55 K", "value": 0.00171}, {"measurement": "solubility (mole fraction)", "setting": "in n-butanol, 302.95 K", "value": 0.00224}, {"measurement": "solubility (mole fraction)", "setting": "in n-butanol, 309.85 K", "value": 0.00315}, {"measurement": "solubility (mole fraction)", "setting": "in n-butanol, 313.05 K", "value": 0.00357}, {"measurement": "solubility (mole fraction)", "setting": "in n-butanol, 318.25 K", "value": 0.00428}, {"measurement": "solubility (mole fraction)", "setting": "in n-butanol, 322.95 K", "value": 0.00498}, {"measurement": "solubility (mole fraction)", "setting": "in n-butanol, 328.15 K", "value": 0.00629}, {"measurement": "solubility (mole fraction)", "setting": "in n-butanol, 333.45 K", "value": 0.00741}, {"measurement": "solubility (mole fraction)", "setting": "in n-butanol, 338.35 K", "value": 0.00871}, {"measurement": "solubility (mole fraction)", "setting": "in n-butanol, 343.15 K", "value": 0.0102}, {"measurement": "solubility (mole fraction)", "setting": "in toluene, 298.15 K", "value": "5.02e-05"}, {"measurement": "solubility (mole fraction)", "setting": "in toluene, 303.25 K", "value": "6.73e-05"}, {"measurement": "solubility (mole fraction)", "setting": "in toluene, 308.15 K", "value": "8.17e-05"}, {"measurement": "solubility (mole fraction)", "setting": "in toluene, 313.35 K", "value": 0.000116}, {"measurement": "solubility (mole fraction)", "setting": "in toluene, 318.15 K", "value": 0.000155}, {"measurement": "solubility (mole fraction)", "setting": "in toluene, 323.25 K", "value": 0.000202}, {"measurement": "solubility (mole fraction)", "setting": "in toluene, 328.35 K", "value": 0.00025}, {"measurement": "solubility (mole fraction)", "setting": "in toluene, 333.15 K", "value": 0.000293}, {"measurement": "solubility (mole fraction)", "setting": "in toluene, 338.35 K", "value": 0.000352}, {"measurement": "solubility (mole fraction)", "setting": "in toluene, 343.55 K", "value": 0.000454}]}
